Results published in EP1935887A1, “Heterocyclic substituted carbonyl derivatives and their use as dopamine D3 receptor ligands” (Aventis Pharmaceuticals Inc., priority 2001, dated 2002).

biological target: T1, Cloned Human Dopamine D3 Receptors (Homo sapiens, UniProt P35462); test: [N-Methyl-3H]Spiroperidol binding to cloned human dopamine D3 receptors; conditions: D3 Ki (nM)
T1 construct: expressed in transfected cells; membrane homogenate
From the text: [N-Methyl-^3H]Spiroperidol Binding to Cloned Human Dopamine D3 Receptors
This assay measures the in vitro activity of compounds on cloned human dopamine (D3) receptors and predicts the direct dopamine-blocking properties of putative neuropsychiatric agents at human dopamine D3 receptors.
The D3 gene was isolated from a human striatal cDNA library (Stratagene). The gene was sequenced and sub-cloned into the expression vector RC/RSV (Invitrogen). CHO (Chinese Hamster Ovary) cells were stably transfected with 10 µg of the D3/RSV plasmid using the DOTAP method from Boehringer Mannheim and 72 clones that were G418 resistant were isolated. Using mRNA and binding displacement data a single high expressing clone was identified. This clone was then grown in large batches for the purpose of developing a 96 well format assay.
• 1. One plate (10 cm) with approximately 2-3 million D3 cells per plate is incubated with 1 ml of Trypsin-EDTA at room temperature for -2 min or until cells have lifted off plates. Four ml of Ham's F12 + 10% Fetal Bovine Serum + 1% Penicillin/Streptomycin + G418 (400 µg/ml) medium are added to resuspend cells and 1 ml of this is added to each large plate (15 cm) containing 19 ml of the same medium as mentioned above. • 2. The 5 large plates are incubated at 37°C + 5% CO2 for - 3 days or until the cells are confluent. • 3. After these plates are confluent, they are split into 10 large plates. Medium is aspirated off, 2 ml of Trypsin-EDTA are added to each plate and plates are incubated at RT for 2 min or until cells have lifted off the plate. Eight ml of the F12 medium (same medium as #1 above) are added to each plate (10 ml total) to resuspend the cells and 5 ml are transferred to the 2 new plates containing 15 ml of the F12 media. • 4. The 10 large plates are incubated at 37°C + 5% CO2 for ∼ 2 days or until the cells are confluent. • 5. The 10 large plates are split into 60 large plates (using Trypsin-EDTA as #3 except 4 ml of F12 medium are added to resuspend cells and 1 ml is aliquoted to 6 new plates containing 19 ml of F12 medium each). • 6. Plates are incubated at 37°C + 5% CO2 for - 3 days or until cell are confluent. • 7. The 60 large plates are then split into 60 roller bottles (100-150 million cells/bottle). Medium is aspirated off , 2 ml of Trypsin-EDTA are added to each plate and incubated at RT for -2 minutes or until cells have lifted off plates. Eight ml of F12 medium are added to each plate to resuspend cells and the entire 10 ml are added to 1 roller bottle containing 90 ml of the F12 medium. • 8. The 60 roller bottles are immediately placed on their sides and transferred to the roller bottle incubator. They are incubated at 37°C + 5% CO2 for ~ 3-5 days. Cells are spun at 30-40% motor speed in the Forma incubator. • 9. Medium is poured off and cells are washed 2X in PBS. • 10. Cells are then scraped off in 20 ml of PBS and the bottles are rinsed again with 5 ml of PBS to remove any remaining cells. Cells are stored on ice before membrane prepration. • 11. The yield for 60 D3 roller bottles has varied from - 260-500 mg. Note: All tissue culture reagents are from Gibco-BRL.
The cells are harvested into 250 ml centrifuge tubes with 100 volumes of cold phosphate buffered saline (PBS) and spun down (1200xG for 10 min at 4°C). The medium is removed and 100 ml PBS are added to each centrifuge tube, cells are resuspened and spun down again. The PBS is removed and the final pellet is homogenized in an appropriate volume of 10% DMSO with a polytron on ice at a medium setting.
A 200 µl sample membrane homogenate is added to 200 µl of 1% SDS, vortexed and allowed to stand for 5 min. Aliquots (25, 50 and 100 µl) of this mixture are assayed in duplicate following the standard Bio-Rad DC protein assay protocol (kit catalog number 500-0112) and using reagent S. Absorbance readings are made at 750 nm (note: the most accurate protein OD readings are between 0.1-0.5 units). […]

T1 sequence (P35462 whole entry): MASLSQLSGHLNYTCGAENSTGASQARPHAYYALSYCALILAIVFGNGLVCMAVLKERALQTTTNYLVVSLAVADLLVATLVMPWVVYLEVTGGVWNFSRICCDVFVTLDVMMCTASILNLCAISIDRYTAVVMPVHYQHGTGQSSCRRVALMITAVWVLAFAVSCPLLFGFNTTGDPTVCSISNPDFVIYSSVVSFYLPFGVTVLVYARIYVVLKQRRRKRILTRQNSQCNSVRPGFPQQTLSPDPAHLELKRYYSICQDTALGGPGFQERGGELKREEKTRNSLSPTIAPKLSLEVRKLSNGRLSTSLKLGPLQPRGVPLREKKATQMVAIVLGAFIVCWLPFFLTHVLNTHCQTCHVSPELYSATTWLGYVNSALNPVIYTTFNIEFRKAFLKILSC

Row | Compound | Ki
1 | Cn1nc(C2CCN(C[C@@H]3C[C@H]3C(=O)N[C@H]3CC[C@H](C)CC3)CC2)c2cc(C(F)(F)F)ccc21 [compound 833769] | 1.63 nM
2 | O=C(NC1CCN(Cc2ccc(F)c(F)c2)CC1)C1CC1CN1CCC(c2noc3ccsc23)CC1 (stereo not shown) [compound 832342] | 0.077 nM
3 | Cn1nc(C2CCN(C[C@@H]3C[C@H]3C(=O)NCCCN3CCCCC3)CC2)c2cccc(C(F)(F)F)c21 [compound 833090] | 41.8 nM

same assay, conditions: Table 2; unit inferred; read-out: d3Ki

Row | Ki | Compound
4 | 9.6 nM | CCC1CCC(NC(=O)C2CC2CN2CCN(c3noc4ccsc34)CC2)CC1 (stereo not shown) [compound 818574]
5 | 208 nM | CCN(C(=O)CCCN1CCN(c2csc3cc(F)ccc23)CC1CCCc1ccccc1)C1CCCCC1 (stereo not shown) [compound 827110]
6 | 338 nM | O=C(CCCCN1CCN(c2csc3cc(F)ccc23)CC1)N(Cc1ccccc1)c1cccc(Oc2ccccc2)c1 [compound 822143]
7 | 3.98 nM | CC[C@H]1CC[C@H](NC(=O)[C@@H]2C[C@H]2CN2CCN(c3ccc(C)cc3C)CC2)CC1 [compound 817091]
8 | 0.75 nM | CCC1CCC(NC(=O)C2CC2CN2CCN(c3cccc4[nH]ccc34)CC2)CC1 (stereo not shown) [compound 817100]
9 | 35 nM | CC1CCC(NC(=O)C2CC2CN2CCN(c3ccc(C(F)(F)F)cc3)CC2)CC1 (stereo not shown) [817039A]
10 | 36.3 nM | CC[C@H]1CC[C@H](NC(=O)[C@@H]2C[C@H]2CN2CCCN(c3cnccn3)CC2)CC1 [compound 817568]
11 | 41.4 nM | O=C(CCCN1CCN(c2csc3cc(F)ccc23)CC1)Nc1cccc(Oc2ccccc2)c1 [compound 822148]
12 | 89.4 nM | COc1cc(CNC(=O)[C@]2(C)C[C@H]2CN2CCN(c3csc4cc(C(F)(F)F)ccc34)CC2)cc(OC)c1OC [compound 825888]
13 | 81 nM | CN(C(=O)CCCCN1CCN(c2csc3cc(F)ccc23)CC1)c1cccc2ccccc12 [compound 822138]
14 | 7.75 nM | CC[C@H]1CC[C@H](NC(=O)[C@@H]2C[C@H]2CN2CCN(c3cc(C)ccc3C)CC2)CC1 [compound 817102]
15 | 39.6 nM | CCCN(C(=O)CCCCN1CCN(c2csc3cc(F)ccc23)CC1)c1ccc(F)cc1 [compound 814648]
16 | 5.04 nM | CCC1CCC(NC(=O)C2CC2CN2CCN(c3cc(C)ccc3C)CC2)CC1 (stereo not shown) [817570A]
17 | 148 nM | O=C(CCCN1CCN(c2csc3cc(F)ccc23)CC1Cc1ccccc1)NC1CCCC1 (stereo not shown) [compound 827101]

same assay, conditions: Table 2 part the 10th table; read-out: d3Ki

Row | Ki | Compound
18 | 2.79 nM | CC1CCCN(C(=O)[C@@H]2C[C@H]2CN2CCCN(c3csc4cc(F)ccc34)CC2)C1 (stereo partly shown) [compound 826875]
19 | 266 nM | CC1CCCCN1C(=O)CCCN1CCN(c2csc3cc(C(F)(F)F)ccc23)CC1CCCc1ccccc1 (stereo not shown) [compound 827084]
20 | 2.12 nM | CC1CCCN(C(=O)CCCN2CCCN(c3csc4cc(F)ccc34)CC2)C1 (stereo not shown) [compound 826835]
21 | 1.31 nM | CC1CCCCN1C(=O)[C@@H]1C[C@H]1CN1CCCN(c2csc3cc(F)ccc23)CC1 (stereo partly shown) [compound 826873]
22 | 95 nM | O=C(CCCN1CCN(c2csc3cc(F)ccc23)CC1CCCc1ccccc1)N1CCC(O)CC1 (stereo not shown) [compound 827113]
23 | 120 nM | CC1CCCCN1C(=O)CCCN1CCN(c2csc3cc(F)ccc23)CC1CCCc1ccccc1 (stereo not shown) [compound 827114]
24 | 86.5 nM | CN(C)[C@H]1CCN(C(=O)[C@@H]2C[C@H]2CN2CCN(c3csc4cc(C(F)(F)F)ccc34)CC2)C1 [compound 826926]
25 | 5.4 nM | O=C([C@@H]1CCC[C@H]1N1CCN(c2csc3cc(F)ccc23)CC1)N1CCCCC1 [compound 826056]
26 | 7.47 nM | O=C([C@@H]1C[C@H]1CN1CCN(c2csc3cc(C(F)(F)F)ccc23)CC1)N1CCC(n2c(=O)[nH]c3ccccc32)CC1 [compound 826903]
27 | 303 nM | CCOC(=O)C1CCN(C(=O)CCCN2CCN(c3csc4cc(C(F)(F)F)ccc34)CC2CCCc2ccccc2)CC1 (stereo not shown) [compound 827082]
28 | 219 nM | O=C([C@@H]1CCCC[C@@H]1CN1CCN(c2csc3cc(C(F)(F)F)ccc23)CC1)N1CCCCC1 [compound 826119]
29 | 183 nM | CC(=O)N(C)C1CCN(C(=O)[C@@H]2C[C@H]2CN2CCN(c3csc4cc(C(F)(F)F)ccc34)CC2)C1 (stereo partly shown) [compound 826921]
30 | 154 nM | CCOC(=O)C1CN(C(=O)C2CC2CN2CCCN(c3csc4cc(C(F)(F)F)ccc34)CC2)CCC1=O (stereo not shown) [compound 826685]
31 | 14.5 nM | CC1CCCCN1C(=O)[C@@H]1C[C@H]1CN1CCN(c2csc3cc(C(F)(F)F)ccc23)CC1 (stereo partly shown) [compound 826905]

same assay, conditions: read-out: D3 Ki

Row | Ki | Compound
32 | 31.3 nM | COc1ccc2c(c1)c(N1CCN(C[C@@H]3C[C@H]3C(=O)NCCCN(C)C)CC1)nn2C [compound 833631]
33 | 36.2 nM | O=C([C@@H]1C[C@H]1CN1CCC(c2nn(CC(F)(F)F)c3ccsc23)CC1)N1CCC(Cn2ccnc2)CC1 [A002328970]
34 | 3.31 nM | O=C(NCC1CCCNC1)[C@@H]1C[C@H]1CN1CCC(c2noc3ccsc23)CC1 (mixture of isomers) [compound 833385]
35 | 4.76 nM | CC1CCC(NC(=O)C2CC2CN2CCC(c3noc4c(C(F)(F)F)cccc34)CC2)CC1 (stereo not shown) [compound 832203]
36 | 88 nM | CN1CCN(CCCNC(=O)[C@@H]2C[C@H]2CN2CCC(c3nn(CC(F)(F)F)c4ccsc34)CC2)CC1 [A002439265]
37 | 552 nM | CN1CCN(CCCNC(=O)[C@@H]2C[C@H]2CN2CCN(c3nc4cccc5c4n3CCC5)CC2)CC1 [A002439100]
38 | 11.3 nM | CN(C)CCCNC(=O)[C@@H]1C[C@H]1CN1CCC(c2noc3ccsc23)CC1 [compound 831048]

same assay, conditions: read-out: d3Ki

Row | Ki | Compound
39 | 130 nM | O=C(NCc1ccco1)[C@@H]1CCCC[C@@H]1CN1CCN(c2csc3cc(C(F)(F)F)ccc23)CC1 [compound 826122]
40 | 43 nM | CC[C@H]1CC[C@H](NC(=O)[C@@H]2C[C@H]2CN2CCN(c3ccc(C(C)=O)cc3)CC2)CC1 [compound 827245]
41 | 8.18 nM | COc1cccc(N2CCN(C[C@@H]3C[C@H]3C(=O)N[C@H]3CC[C@H](C)CC3)CC2)c1 [compound 827195]
42 | 1.89 nM | CC1CCCC(NC(=O)[C@@H]2C[C@H]2CN2CCCN(c3csc4cc(F)ccc34)CC2)C1 (stereo partly shown) [compound 826867]
43 | 7.4 nM | O=C([C@@H]1C[C@H]1CN1CCCN(c2csc3cc(F)ccc23)CC1)N(CCO)C1CCCCC1 [compound 826870]
44 | 35 nM | CCN(C(=O)[C@@H]1C[C@H]1CN1CCN(c2csc3cc(C(F)(F)F)ccc23)CC1)C1CCCCC1 [compound 826894]
45 | 293 nM | Cc1cccc(CNC(=O)[C@@H]2CCCC[C@H]2CN2CCN(c3csc4cc(C(F)(F)F)ccc34)CC2)c1 [compound 826092]
46 | 38 nM | CC1(C)C2CCC1(C)C(NC(=O)[C@@H]1C[C@H]1CN1CCN(c3csc4cc(C(F)(F)F)ccc34)CC1)C2 (stereo partly shown) [compound 826890]
47 | 193 nM | O=C(Nc1cccnc1)[C@@H]1CCCC[C@H]1CN1CCN(c2csc3cc(C(F)(F)F)ccc23)CC1 [compound 826100]
48 | 89.7 nM | O=C(N[C@H]1CC[C@H](C(=O)O)CC1)[C@@H]1C[C@H]1CN1CCN(c2csc3cc(C(F)(F)F)ccc23)CC1 [816078A]
49 | 16.8 nM | CN(C)c1ccc(CNC(=O)[C@@H]2CCCC[C@@H]2CN2CCN(c3csc4cc(C(F)(F)F)ccc34)CC2)cc1 [compound 826104]
50 | 83.8 nM | O=C(NNC1CCCCC1)[C@@H]1C[C@H]1CN1CCN(c2csc3cc(C(F)(F)F)ccc23)CC1 [compound 826887]
51 | 90.9 nM | O=C(NC1CCC1)[C@@H]1CCC[C@H]1N1CCN(c2csc3cc(F)ccc23)CC1 [compound 826057]
52 | 1.04 nM | COc1ccccc1N1CCN(C[C@@H]2C[C@H]2C(=O)N[C@H]2CC[C@H](C)CC2)CC1 [compound 827179]
